test: log P by HPLC; assay type: physicochemical; settings: EEC directive 79/831 Annex V. A8 by HPLC (gradient method, acetonitrile/0.1% aqueous phosphoric acid)

SMILES | logP
CC(=O)NC1CCN(c2c(-c3ccc(F)cc3F)c(Cl)nc3nc(C)nn23)C1 (stereo not shown) [compound 450] | 1.73
Cc1nc2nc(Cl)c(-c3c(F)cccc3Cl)c(NCC(F)(F)F)n2n1 [compound 260] | 2.77
CC1CCCN1c1c(-c2c(F)cc(F)cc2F)c(Cl)nc2nc(C3CC3)nn12 (stereo not shown) [compound 471] | 3.9
C#CCN(C)c1c(-c2c(F)cccc2Cl)c(Cl)nc2nc(C)nn12 [compound 271] | 2.77
Cc1nc2nc(Cl)c(-c3ccc(F)cc3F)c(N3CC=CCC3)n2n1 [compound 283] | 3.11
Cc1nc2nc(Cl)c(-c3c(F)cccc3F)c(N(O)C(C)C)n2n1 [compound 426] | 2.52
Cc1nc2nc(Cl)c(-c3ccc(F)cc3F)c(N3CCCC3)n2n1 [compound 281] | 2.74
Cc1nc2nc(Cl)c(-c3ccccc3F)c(NOCc3ccc(Cl)cc3)n2n1 [compound 368] | 3.3
Cc1nc2nc(Cl)c(-c3c(F)cccc3F)c(N3CCc4ccccc4C3)n2n1 [compound 327] | 3.22
CCCCONc1c(-c2ccccc2F)c(Cl)nc2nc(C)nn12 [compound 372] | 2.98
Cc1nc2nc(Cl)c(-c3c(F)cccc3F)c(N3CCCCC3C(F)(F)F)n2n1 (stereo not shown) [compound 423] | 3.33
Cc1nc2nc(Cl)c(-c3c(F)cccc3F)c(N3CCCC(O)C3)n2n1 (stereo not shown) [compound 314] | 2.03
CONc1c(-c2c(F)cccc2F)c(Cl)nc2nc(C)nn12 [compound 436] | 2.07
C=C(C)CN(CC)c1c(-c2ccccc2Cl)c(Cl)nc2nc(C3CC3)nn12 [compound 447] | 4.59
CCNc1c(-c2ccccc2F)c(Cl)nc2nc(C)nn12 [compound 383] | 2.3
Cc1nc2nc(Cl)c(-c3c(F)cc(F)cc3F)c(NC(C)C3CC3)n2n1 (stereo not shown) [compound 379] | 3.09
Cc1nc2nc(Cl)c(-c3c(F)cccc3F)c(NOCc3ccccc3Cl)n2n1 [compound 431] | 3.13
C=CCN(C)c1c(-c2c(F)cccc2F)c(Cl)nc2nc(C)nn12 [compound 333] | 2.95
CCOC(=O)CN(C)c1c(-c2ccc(F)cc2F)c(Cl)nc2nc(C)nn12 [compound 410] | 2.8
Cc1nc2nc(Cl)c(-c3c(F)cccc3F)c(Nc3ccc(F)cc3)n2n1 [compound 445] | 2.71
Cc1nc2nc(Cl)c(-c3c(F)cccc3Cl)c(N3CCCC(C)C3)n2n1 (stereo not shown) [compound 302] | 3.99
CC(C)(C)CNc1c(-c2c(F)cc(F)cc2F)c(Cl)nc2nc(C3CC3)nn12 [compound 461] | 4.19
Cc1nc2nc(Cl)c(-c3ccccc3F)c(NOCc3cc(Cl)cc(Cl)c3)n2n1 [compound 364] | 3.76
Cc1nc2nc(Cl)c(-c3c(F)cccc3F)c(N3CCC(C)(C)CC3)n2n1 [compound 315] | 3.91

More lines, now with the values ahead:

logP | SMILES
3.02 | Fc1cc(F)c(-c2c(Cl)nc3nc(C4CC4)nn3c2N2CCOCC2)c(F)c1 [compound 475]
3.52 | Fc1cc(F)c(-c2c(Cl)nc3nc(C4CC4)nn3c2N2CCCC2)c(F)c1 [compound 472]
3.74 | Fc1cccc(Cl)c1-c1c(Cl)nc2nc(C3CC3)nn2c1N1CCCCO1 [compound 486]
4.07 | Fc1ccc(-c2c(Cl)nc3nc(C4CC4)nn3c2N2CCC(C(F)(F)F)CC2)c(F)c1 [compound 515]
3.68 | Cc1nc2nc(Cl)c(-c3c(F)cc(F)cc3F)c(N(C)CC3CC3(Cl)Cl)n2n1 (stereo not shown) [compound 502]
3.66 | CCC(C)Nc1c(-c2c(F)cccc2Cl)c(Cl)nc2nc(C3CC3)nn12 (stereo not shown) [compound 478]
2.85 | Fc1ccc(-c2c(Cl)nc3nc(C4CC4)nn3c2N2CCOCC2)c(F)c1 [compound 518]

same assay, conditions: HPLC, gradient method, acetonitrile/0.1% aqueous phosphoric acid; EEC directive 79/831 Annex V. A8

SMILES | logP
Cc1nc2nc(Cl)c(-c3ccccc3Cl)c(NCC3CC3)n2n1 [compound 216] | 2.85
Cc1nc2nc(Cl)c(-c3ccccc3Cl)c(NC(C)C)n2n1 [compound 214] | 2.75
CCCN(CC1CC1)c1c(-c2c(F)cc(F)cc2F)c(Cl)nc2nc(C)nn12 [compound 162] | 4.08
CC(C)(Nc1c(-c2c(F)cc(F)cc2F)c(Cl)nc2nc(C(F)(F)F)nn12)C(F)(F)F [compound 105] | 4.37
Cc1nc2nc(Cl)c(-c3c(F)cccc3F)c(NC(C)C)n2n1 [compound 174] | 2.52
Fc1cc(F)c(-c2c(Cl)nc3nc(C(F)(F)F)nn3c2N2CCOCC2)c(F)c1 [compound 34] | 3.22
Cc1nc2nc(Cl)c(-c3c(F)cccc3Cl)c(N3CCOCC3)n2n1 [compound 246] | 2.48
Cc1nc2nc(Cl)c(-c3ccccc3Cl)c(NC(C)CC(C)C)n2n1 (stereo not shown) [compound 218] | 3.84
Cc1nc2nc(Cl)c(-c3c(F)cc(F)cc3F)c(NC(C)C(F)(F)F)n2n1 (stereo not shown) [compound 12] | 3.01
CC(C)Nc1c(-c2c(F)cc(F)cc2F)c(Cl)nc2nc(C(F)(F)F)nn12 [compound 11] | 3.8
Cc1nc2nc(Cl)c(-c3c(F)cccc3Cl)c(NC3CCCC3)n2n1 [compound 255] | 3.29
C=CCN(CC)c1c(-c2ccccc2Cl)c(Cl)nc2nc(C)nn12 [compound 224] | 3.5
CC(C)NNc1c(-c2c(F)cc(F)cc2F)c(Cl)nc2nc(C(F)(F)F)nn12 [compound 84] | 3.68
Cc1nc2nc(Cl)c(-c3c(F)cccc3F)c(NOCc3ccc(Cl)cc3)n2n1 [compound 138] | 3.23
CCN(CCOC)c1c(-c2c(F)cc(F)cc2F)c(Cl)nc2nc(C)nn12 [compound 29] | 2.93
COCCNc1c(-c2c(F)cccc2F)c(Cl)nc2nc(C)nn12 [compound 177] | 2.12
CN(C)c1c(-c2c(F)cc(F)cc2F)c(Cl)nc2nc(C(F)(F)F)nn12 [compound 100] | 3.6
Cc1nc2nc(Cl)c(-c3c(F)cc(F)cc3F)c(NC(C)CO)n2n1 (stereo not shown) [compound 122] | 1.93
Cc1nc2nc(Cl)c(-c3c(F)cccc3Cl)c(N(N)CC(C)C)n2n1 [compound 130] | 3.12
Cc1nc2nc(Cl)c(-c3c(F)cccc3F)c(N3CCSCC3)n2n1 [compound 179] | 2.84
C=C(C)CNc1c(-c2c(F)cc(F)cc2F)c(Cl)nc2nc(C(F)(F)F)nn12 [compound 22] | 3.82
C=CCN(C)c1c(-c2c(F)cc(F)cc2F)c(Cl)nc2nc(C)nn12 [compound 152] | 3.18
CCc1nc2nc(Cl)c(-c3c(F)cc(F)cc3F)c(N3CCCC3)n2n1 [compound 72] | 3.29

Second part, the molecule after the results:

logP | SMILES
3.63 | Fc1ccc(-c2c(Cl)nc3nc(C4CC4)nn3c2NCC2CC2)c(Cl)c1 [compound 625]
3.82 | CC(C)C(C)Nc1c(-c2c(F)cccc2F)c(Cl)nc2nc(C3CC3)nn12 (stereo not shown) [compound 751]
3.9 | CC(C)CNc1c(-c2ccc(F)cc2Cl)c(Cl)nc2nc(C3CC3)nn12 [compound 621]
3.24 | COC(CN(C)c1c(-c2ccc(F)cc2F)c(Cl)nc2nc(C3CC3)nn12)OC [compound 666]
4.14 | CC(C)C(C)Nc1c(-c2ccccc2Cl)c(Cl)nc2nc(C3CC3)nn12 (stereo not shown) [compound 579]
4.55 | CC1=CCCN(c2c(-c3ccc(F)cc3F)c(Cl)nc3nc(C(F)(F)F)nn23)C1 [compound 802]
4.73 | CC(C)CC(C)Nc1c(-c2ccc(F)cc2F)c(Cl)nc2nc(C(F)(F)F)nn12 (stereo not shown) [compound 818]
4.54 | CC1CCCCN1c1c(-c2c(F)cccc2Cl)c(Cl)nc2nc(C3CC3)nn12 (stereo not shown) [compound 705]
2.97 | Cc1nc2nc(Cl)c(-c3c(F)cccc3F)c(N(C)Cc3ccco3)n2n1 [compound 566]
4.44 | C=C(C)CN(C)c1c(-c2ccc(F)cc2F)c(Cl)nc2nc(C(F)(F)F)nn12 [compound 546]
3.46 | CCN(CCC#N)c1c(-c2ccc(F)cc2F)c(Cl)nc2nc(C(F)(F)F)nn12 [compound 550]
3.81 | COC(=O)C1CCN(c2c(-c3ccc(F)cc3F)c(Cl)nc3nc(C(F)(F)F)nn23)CC1 [compound 803]
4.25 | CC(C)C(C)Nc1c(-c2ccc(F)cc2Cl)c(Cl)nc2nc(C3CC3)nn12 (racemic) [compound 587]
4.95 | CCC1=CCN(c2c(-c3ccc(F)cc3F)c(Cl)nc3nc(C(F)(F)F)nn23)CC1 [compound 801]
4.31 | Fc1ccc(-c2c(Cl)nc3nc(C4CC4)nn3c2NC2CC(C(F)(F)F)CC(C(F)(F)F)C2)c(F)c1 (stereo not shown) [compound 716]
3.25 | Fc1ccc(-c2c(Cl)nc3nc(C4CC4)nn3c2NCCC(F)(F)F)c(F)c1 [compound 648]
4.19 | CC(C)(C)Nc1c(-c2ccc(F)cc2F)c(Cl)nc2nc(C(F)(F)F)nn12 [compound 535]
4.13 | CCN(CC)c1c(-c2ccc(F)cc2Cl)c(Cl)nc2nc(C3CC3)nn12 [compound 632]
4.19 | Fc1cccc(Cl)c1-c1c(Cl)nc2nc(C3CC3)nn2c1N1CCCCC1 [compound 708]
3.28 | C=C(C)CNc1c(-c2c(F)cccc2F)c(Cl)nc2nc(C3CC3)nn12 [compound 760]
4.44 | Fc1ccc(-c2c(Cl)nc3nc(C(F)(F)F)nn3c2NC2CCCC(C(F)(F)F)C2)c(F)c1 (stereo not shown) [compound 536]
2.61 | Cc1nc2nc(Cl)c(-c3c(F)cccc3F)c(N3OCCC3C)n2n1 (stereo not shown) [compound 578]
4.23 | CC(C)C(C)Nc1c(-c2ccc(F)cc2Cl)c(Cl)nc2nc(C3CC3)nn12 (racemic) [compound 775]
2.72 | Fc1cccc(F)c1-c1c(Cl)nc2nc(C3CC3)nn2c1NCC(F)F [compound 763]
4.43 | Fc1ccc(-c2c(Cl)nc3nc(C(F)(F)F)nn3c2NC2CCC(C(F)(F)F)CC2)c(F)c1 (stereo not shown) [compound 537]
4.31 | C=C(C)CN(CC)c1c(-c2c(F)cccc2F)c(Cl)nc2nc(C3CC3)nn12 [compound 752]
3.14 | CC(C)Nc1c(-c2c(F)cccc2F)c(Cl)nc2nc(C3CC3)nn12 [compound 739]
2.17 | Cc1nc2nc(Cl)c(-c3c(F)cccc3F)c(N(C)CCC#N)n2n1 [compound 563]

Source: patent US7186831B2, “5-halo-2-alkyl[1,2,4]triazolo[1,5-a]pyrimidin-7-amines” (priority 2001, dated 2007)
